Test results published in article PMC7867136, “Anti-Infective and Anti-Inflammatory Mode of Action of Peptide 19-2.5” (International Journal of Molecular Sciences, 2021).

System: Salmonella minnesota strain R60 bacteria on human mononuclear cells
Assay: TNFα secretion by human mononuclear cells exposed to whole bacteria
Format: cell-based
Details: 10^6/ml Salmonella minnesota R60; antibiotics alone, or Pep19-2.5 added to ceftriaxone or ciprofloxacin; Figure 5
Description: Mononuclear cells (MNC) were isolated from heparinized blood samples obtained from healthy donors as described previously [1, 24]. […] For stimulation, 200 μL MNC (1 × 10^6 cells) in RPMI medium supplemented with PS/Glu2% (penicillin/streptomycin/glutamine, Biochrome, Berlin, Germany) plus AB serum (4%) was transferred into the wells of a 96-well culture plate.
The formulations to be tested for stimulation were preincubated for 30 min at 37 °C and added to the cultures at 20 μL per well. The cultures were incubated for 4 h at 37 °C with 5% CO2. Supernatants were collected after centrifugation of the culture plates for 10 min at 400× g and stored at 20 °C until immunological determination of tumor necrosis factor alpha (TNF-α), carried out with a sandwich enzyme-linked immunosorbent assay (ELISA) using a monoclonal antibody against TNF (BD Biosciences, Heidelberg, Germany) as described previously in detail [1]. In the case of the stimulation by the TNFα receptor, interleukin-8 in the supernatants was determined immunologically.

SMILES: CO/N=C(\C(=O)N[C@@H]1C(=O)N2C(C(=O)O)=C(CSc3nc(=O)c(=O)[nH]n3C)CS[C@H]12)c1csc(N)n1 [ceftriaxone]
- Influence on TNFα release from hMNC exposed to whole bacteria: only marginally influence the cytokine release
